The values below come from ChEMBL document CHEMBL1821577, “Discovery of GSK1997132B a novel centrally penetrant benzimidazole PPARγ partial agonist” (Bioorg Med Chem Lett, 2011).

Data set [1] has as its target T1, Cytochrome P450 3A4 (Homo sapiens, UniProt P08684). Description: Inhibition of CYP3A4 using 7-benzyloxyquinoline as substrate. The format is ADME.
Data set [2] has as its system Brain. The data set can be described thus: Drug uptake in rat brain at steady state at 2 mg/kg/h, iv. It is filed as ADME, organism-based. Details: route intravenous. To be noted: in vivo, read-out: Drug uptake.
The target of a further data set is Cytochrome P450 2D6 (Homo sapiens, UniProt P10635). Description: Inhibition of CYP2D6. It is filed as ADME.
Data set [3] in a line: Solubility of the compound in simulated gastric fluid after 0.5 hrs. The format is physicochemical.
Data set [4] has as its system Brain. The data set can be described thus: Free drug level rat brain at 1 mg/kg, iv. The format is ADME, organism-based. On the set-up: dose 1 mg/kg, route intravenous. The conditions noted are these: in vivo.
Another data set addresses T2, Cytochrome P450 1A2 (Homo sapiens, UniProt P05177).
T2 sequence (P05177 whole entry): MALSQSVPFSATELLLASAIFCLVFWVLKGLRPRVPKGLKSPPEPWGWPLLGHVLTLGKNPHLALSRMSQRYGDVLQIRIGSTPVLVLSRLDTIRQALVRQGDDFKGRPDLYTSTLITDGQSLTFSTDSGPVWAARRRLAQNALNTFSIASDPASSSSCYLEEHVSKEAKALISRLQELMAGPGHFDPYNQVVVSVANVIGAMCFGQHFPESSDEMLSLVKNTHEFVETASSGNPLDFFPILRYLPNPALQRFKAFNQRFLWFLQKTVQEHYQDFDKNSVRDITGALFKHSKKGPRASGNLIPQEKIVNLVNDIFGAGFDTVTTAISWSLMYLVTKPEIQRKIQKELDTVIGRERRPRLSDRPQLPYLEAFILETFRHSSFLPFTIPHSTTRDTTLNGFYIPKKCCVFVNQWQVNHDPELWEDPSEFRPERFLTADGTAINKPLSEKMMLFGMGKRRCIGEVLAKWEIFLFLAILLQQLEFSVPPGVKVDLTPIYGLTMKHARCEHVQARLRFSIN
The data set can be described thus: Inhibition of CYP1A2. The format is ADME.

Data set [5] addresses T1, Cytochrome P450 3A4. Description: Inhibition of CYP3A4 using DEF substrate. The format is ADME.
A short description of data set [6]: Solubility of the compound in fasted state simulated intestinal fluid after 0.5 hrs. It is filed as physicochemical.
For data set [7], the target named is T3, Peroxisome proliferator-activated receptor gamma (Homo sapiens) (UniProt P37231).
T3 sequence (whole entry): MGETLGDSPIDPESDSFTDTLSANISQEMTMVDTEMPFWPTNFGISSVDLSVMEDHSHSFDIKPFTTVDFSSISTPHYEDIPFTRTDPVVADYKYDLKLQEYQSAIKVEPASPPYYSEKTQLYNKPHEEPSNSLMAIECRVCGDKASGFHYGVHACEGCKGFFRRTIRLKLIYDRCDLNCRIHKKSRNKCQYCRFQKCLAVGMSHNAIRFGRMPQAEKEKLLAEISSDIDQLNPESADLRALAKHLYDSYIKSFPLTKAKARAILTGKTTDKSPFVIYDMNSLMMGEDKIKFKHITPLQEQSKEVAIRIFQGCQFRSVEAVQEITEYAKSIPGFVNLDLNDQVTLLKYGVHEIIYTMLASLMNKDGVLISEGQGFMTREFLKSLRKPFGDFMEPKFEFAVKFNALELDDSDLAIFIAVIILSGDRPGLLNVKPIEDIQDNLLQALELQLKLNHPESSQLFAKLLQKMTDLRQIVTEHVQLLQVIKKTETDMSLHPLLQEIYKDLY
The data set can be described thus: Activity at human PPARgamma by luciferase reporter gene assay. Details: concentration or dose not given beside the values. A general note: Reporter assays use an easily measured gene product as a stand-in for the process of interest.

A further data set has as its target Cytochrome P450 2C9 (Homo sapiens, UniProt P11712). Description: Inhibition of CYP2C9. The format is ADME.
The target in a further data set is Cytochrome P450 2C19 (Homo sapiens, UniProt P33261). The data set can be described thus: Inhibition of CYP2C19. It is filed as ADME.
The subject of a further data set is Rattus norvegicus. The data set can be described thus: Blood clearance at steady state in rat at 2 mg/kg/h, iv. Details: route intravenous. The conditions noted are these: in vivo. The format is ADME, organism-based.
Data set [8] is described as follows: Fraction unbound in rat brain. It is filed as ADME, tissue-based.
A short description of data set [9]: Fraction unbound in rat blood. It is filed as ADME, tissue-based.
Data set [10] has as its system P-gp (human MDR1). The data set can be described thus: Efflux ratio of permeability in dog MDCK2 expressing human MDR1 cells by PGP assay. The format is ADME, cell-based, Canis lupus familiaris, MDCK-II. To be noted: MDCK-MDR1.
Data set [11] is described as follows: Solubility of the compound in water after 0.5 hrs. It is filed as physicochemical.
Data set [12] addresses T4, Peroxisome proliferator-activated receptor gamma (Homo sapiens, UniProt P37231).
T4 sequence (P37231 whole entry): T3 sequence (whole entry)
Description: Partial agonist activity at human PPARgamma by luciferase reporter gene assay. It is filed as functional.

The nature of data set [13]: Solubility of the compound in fed state simulated intestinal fluid after 0.5 hrs. The format is physicochemical.
Data set [14] concerns P-gp (human MDR1). The data set can be described thus: Permeability of the compound from apical to basolateral direction in dog MDCK2 expressing human MDR1 cells by PGP assay. It is filed as ADME, cell-based, Canis lupus familiaris, MDCK-II. To be noted: MDCK-MDR1, read-out: permeability.
For data set [15], the system named is Liver microsomes. The data set can be described thus: Intrinsic clearance in human liver microsome. It is filed as ADME. A general note: Liver microsomes are vesicles of endoplasmic reticulum, rich in cytochrome P450 enzymes.
Data set [16] in a line: Ratio of drug uptake in brain to blood at steady state in rat at 2 mg/kg/h, iv. The format is ADME, organism-based. On the set-up: route intravenous.
A further data set deals with Liver. The data set can be described thus: Intrinsic clearance in rat liver S9 fraction. It is filed as ADME, subcellular.
In data set [17] the test system is Liver microsomes. The data set can be described thus: Intrinsic clearance in rat liver microsome. The format is ADME.

≈ marks a conversion by molar mass, not a printed value. Where only a bound is given, the exact number is not on record here.

T1 sequence (P08684 whole entry): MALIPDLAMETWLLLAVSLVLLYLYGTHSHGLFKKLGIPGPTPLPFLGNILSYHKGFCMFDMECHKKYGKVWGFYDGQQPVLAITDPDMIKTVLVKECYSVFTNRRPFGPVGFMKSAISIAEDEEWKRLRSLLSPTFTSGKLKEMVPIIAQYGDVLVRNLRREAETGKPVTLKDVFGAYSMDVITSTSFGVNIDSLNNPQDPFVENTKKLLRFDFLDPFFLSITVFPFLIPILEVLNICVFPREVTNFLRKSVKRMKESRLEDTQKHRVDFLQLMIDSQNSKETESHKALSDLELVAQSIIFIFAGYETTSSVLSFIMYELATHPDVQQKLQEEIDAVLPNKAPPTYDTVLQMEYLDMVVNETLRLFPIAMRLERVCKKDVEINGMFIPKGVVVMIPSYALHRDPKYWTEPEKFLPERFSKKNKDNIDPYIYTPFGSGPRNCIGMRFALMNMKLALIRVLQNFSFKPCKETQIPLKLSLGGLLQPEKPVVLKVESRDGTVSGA
Cytochrome P450 2D6, sequence (P10635 whole entry): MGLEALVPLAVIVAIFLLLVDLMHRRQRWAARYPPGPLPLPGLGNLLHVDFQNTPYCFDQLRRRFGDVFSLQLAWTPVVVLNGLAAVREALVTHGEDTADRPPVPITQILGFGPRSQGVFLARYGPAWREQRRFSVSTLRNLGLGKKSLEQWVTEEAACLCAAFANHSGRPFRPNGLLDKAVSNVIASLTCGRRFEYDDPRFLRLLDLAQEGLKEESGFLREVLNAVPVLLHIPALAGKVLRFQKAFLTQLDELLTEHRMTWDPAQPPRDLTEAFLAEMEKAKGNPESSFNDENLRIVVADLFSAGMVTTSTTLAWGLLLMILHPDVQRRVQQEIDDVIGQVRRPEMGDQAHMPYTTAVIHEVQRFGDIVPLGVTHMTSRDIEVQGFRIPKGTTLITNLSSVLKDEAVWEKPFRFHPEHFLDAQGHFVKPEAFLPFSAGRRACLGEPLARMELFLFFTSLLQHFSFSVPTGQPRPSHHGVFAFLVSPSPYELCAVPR
Cytochrome P450 2C9, sequence (P11712 whole entry): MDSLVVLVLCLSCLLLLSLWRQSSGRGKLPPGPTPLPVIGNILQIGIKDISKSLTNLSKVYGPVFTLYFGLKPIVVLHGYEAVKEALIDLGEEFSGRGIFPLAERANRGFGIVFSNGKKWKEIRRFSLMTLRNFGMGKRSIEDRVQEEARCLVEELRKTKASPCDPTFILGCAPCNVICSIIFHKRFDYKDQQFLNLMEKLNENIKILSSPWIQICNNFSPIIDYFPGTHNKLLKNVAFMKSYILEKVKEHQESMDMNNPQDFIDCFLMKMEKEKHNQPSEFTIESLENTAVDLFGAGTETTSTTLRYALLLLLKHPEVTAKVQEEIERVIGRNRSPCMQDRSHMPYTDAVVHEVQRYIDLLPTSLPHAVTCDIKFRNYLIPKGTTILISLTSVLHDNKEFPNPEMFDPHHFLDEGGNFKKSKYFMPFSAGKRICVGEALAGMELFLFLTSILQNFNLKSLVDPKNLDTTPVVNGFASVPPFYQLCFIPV
Cytochrome P450 2C19, sequence (P33261 whole entry): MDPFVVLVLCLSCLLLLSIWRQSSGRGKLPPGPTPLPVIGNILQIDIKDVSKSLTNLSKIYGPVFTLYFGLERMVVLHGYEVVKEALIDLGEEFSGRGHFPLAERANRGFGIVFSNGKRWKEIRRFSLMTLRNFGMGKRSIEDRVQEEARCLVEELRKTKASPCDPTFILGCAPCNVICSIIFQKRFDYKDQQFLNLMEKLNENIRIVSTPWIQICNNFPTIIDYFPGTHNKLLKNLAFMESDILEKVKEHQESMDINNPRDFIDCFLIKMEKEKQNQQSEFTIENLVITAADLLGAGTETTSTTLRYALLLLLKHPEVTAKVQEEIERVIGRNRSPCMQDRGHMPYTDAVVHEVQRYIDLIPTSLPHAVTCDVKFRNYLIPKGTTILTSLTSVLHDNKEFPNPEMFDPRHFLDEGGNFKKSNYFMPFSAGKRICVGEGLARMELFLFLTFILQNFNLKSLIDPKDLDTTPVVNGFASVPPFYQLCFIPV

The IC50 is the concentration that inhibits the measured activity by half. As a reminder, the solubility is how much of the substance goes into solution per volume. The term clearance denotes the rate of elimination divided by the concentration. Broadly, the fraction unbound is the share of the substance not bound to proteins or other matrix. As a reminder, the efflux ratio is the permeability from basolateral to apical divided by that in the opposite direction, in the common usage. The EC50 is the midpoint of the concentration-response curve. The Kp is tissue or fluid exposure divided by exposure in the circulation. Take `CC[C@@H](NC(=O)c1ccc2c(c1)ncn2Cc1ncc(F)cc1F)c1ccccc1`: the IC50 against Cytochrome P450 3A4 [1] was greater than 100 µM; at Cytochrome P450 2D6, 65 µM; on Cytochrome P450 1A2, 14 µM; on Cytochrome P450 3A4 [5] it was 45 µM; against Cytochrome P450 2C9, 42 µM; on Cytochrome P450 2C19, 87 µM. In the data set on Brain [2], the concentration came to 446 nM. Besides, the solubility at 0.5 h in data set [3] is greater than 1000 µg/mL; in [6], 80 µg/mL (≈ 197 µM); in data set [11] it was 330 µg/mL (≈ 812 µM); in [13] it was 220 µg/mL (≈ 541 µM). Besides, the Drug uptake in the data set with Brain [4] was 51 nM. In data set [7], this compound had an Activity of 68%. Besides, the clearance in the data set on Rattus norvegicus is 30 mL/min/kg. For the same compound, the fraction unbound is 0.115 in [8] and 0.175 in data set [9]. For the same compound, the efflux ratio in the data set on P-gp (human MDR1) [10] was 1.6. In data set [12], this compound had a concentration giving a half-maximal response (EC50) of 0.01 µM. In addition, the Papp A→B in the data set with P-gp (human MDR1) [14] was 122 ×10⁻⁶ cm/s. For the same compound, the results for the CL in the data set on Liver microsomes [15], in the data set on Liver and in the data set with Liver microsomes [17] were 0.5 mL/min/g, 1.6 mL/min/g and 1.2 mL/min/g, respectively. Besides, in data set [16], the Kp worked out at 0.22.
